Measurements reported in patent US9575064B2, “Methods relating to testing for lysosomal storage disorders” (PerkinElmer Health Sciences, Inc., priority 2014, dated 2017).

Key:
[1] = cited from earlier work
[2] = biological target: T1, galactocerebrosidase (GALC) (Homo sapiens, UniProt P54803); details: Zhang et al; Li et al; cited from earlier work
T1 sequence (P54803 43-685): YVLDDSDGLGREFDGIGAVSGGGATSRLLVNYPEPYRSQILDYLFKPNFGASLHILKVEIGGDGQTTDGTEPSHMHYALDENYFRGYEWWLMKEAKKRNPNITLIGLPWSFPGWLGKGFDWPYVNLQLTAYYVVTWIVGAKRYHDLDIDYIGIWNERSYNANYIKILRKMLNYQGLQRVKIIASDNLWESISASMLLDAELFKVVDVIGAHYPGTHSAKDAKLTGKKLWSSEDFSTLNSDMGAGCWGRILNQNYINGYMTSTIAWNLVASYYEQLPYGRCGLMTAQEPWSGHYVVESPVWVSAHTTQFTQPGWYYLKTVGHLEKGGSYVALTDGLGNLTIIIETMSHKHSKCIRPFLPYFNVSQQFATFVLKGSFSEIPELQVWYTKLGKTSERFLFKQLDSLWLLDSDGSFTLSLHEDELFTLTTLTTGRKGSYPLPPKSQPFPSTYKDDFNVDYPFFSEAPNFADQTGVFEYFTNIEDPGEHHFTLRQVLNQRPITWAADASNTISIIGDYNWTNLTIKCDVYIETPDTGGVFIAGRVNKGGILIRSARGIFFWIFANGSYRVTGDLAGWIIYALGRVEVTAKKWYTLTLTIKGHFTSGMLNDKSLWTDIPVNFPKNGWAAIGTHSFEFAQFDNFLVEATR

[3] = biological target: T1, galactocerebrosidase (GALC); assay: 6-plex DBS enzyme activity assay (FIA-MS/MS) with and without sodium oleate: GALC; type: biochemical; design: from tissue; host or cells: human dried blood spots (CDC control DBS: pooled cord blood, leukocyte-reduced adult blood)
[4] = biological target: T2, acid sphingomylenase (ASM) (Homo sapiens, UniProt P17405); assay: 6-plex DBS enzyme activity assay (FIA-MS/MS) with and without sodium oleate: ASM; type: biochemical
T2 construct: from tissue; host or cells: human dried blood spots (CDC control DBS: pooled cord blood, leukocyte-reduced adult blood)
T2 sequence (P17405 47-631): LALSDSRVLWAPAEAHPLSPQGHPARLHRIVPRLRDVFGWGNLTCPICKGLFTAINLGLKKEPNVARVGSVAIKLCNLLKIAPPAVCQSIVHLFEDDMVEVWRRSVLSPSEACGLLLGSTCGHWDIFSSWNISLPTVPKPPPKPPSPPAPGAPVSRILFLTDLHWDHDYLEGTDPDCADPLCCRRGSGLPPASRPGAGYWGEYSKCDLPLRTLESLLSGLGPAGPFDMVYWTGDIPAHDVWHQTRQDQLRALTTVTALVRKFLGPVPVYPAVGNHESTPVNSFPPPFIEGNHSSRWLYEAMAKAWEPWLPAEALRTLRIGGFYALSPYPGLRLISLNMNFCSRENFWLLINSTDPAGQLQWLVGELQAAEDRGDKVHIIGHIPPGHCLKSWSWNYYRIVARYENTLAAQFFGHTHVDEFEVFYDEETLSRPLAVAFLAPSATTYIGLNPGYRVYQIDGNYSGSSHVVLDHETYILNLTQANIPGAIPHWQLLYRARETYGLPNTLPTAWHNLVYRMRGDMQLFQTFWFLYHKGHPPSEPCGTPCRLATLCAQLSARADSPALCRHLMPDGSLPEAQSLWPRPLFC

[5] = biological target: T3, acid β-glucocerebrosidase (ABG) (Homo sapiens, UniProt P04062); assay: 6-plex DBS enzyme activity assay (FIA-MS/MS) with and without sodium oleate: ABG; type: biochemical
T3 construct: from tissue; host or cells: human dried blood spots (CDC control DBS: pooled cord blood, leukocyte-reduced adult blood)
T3 sequence (P04062 40-536): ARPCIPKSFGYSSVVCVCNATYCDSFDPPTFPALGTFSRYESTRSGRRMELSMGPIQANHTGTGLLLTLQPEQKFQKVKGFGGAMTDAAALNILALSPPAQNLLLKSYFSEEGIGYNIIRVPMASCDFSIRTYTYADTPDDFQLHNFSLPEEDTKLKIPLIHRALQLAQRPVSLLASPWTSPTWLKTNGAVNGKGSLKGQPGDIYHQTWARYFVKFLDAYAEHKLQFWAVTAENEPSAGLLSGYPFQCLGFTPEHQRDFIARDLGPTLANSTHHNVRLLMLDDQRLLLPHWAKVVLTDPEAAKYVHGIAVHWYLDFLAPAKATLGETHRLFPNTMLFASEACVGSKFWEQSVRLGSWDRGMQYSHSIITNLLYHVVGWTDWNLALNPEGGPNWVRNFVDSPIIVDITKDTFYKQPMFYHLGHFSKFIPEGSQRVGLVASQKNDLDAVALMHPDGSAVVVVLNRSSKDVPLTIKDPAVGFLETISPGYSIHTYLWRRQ

α-L-iduronidase (IDUA) = biological target: T4, α-L-iduronidase (IDUA) (Homo sapiens, UniProt P35475); assay: 6-plex DBS enzyme activity assay (FIA-MS/MS) with and without sodium oleate: IDUA; type: biochemical
T4 construct: from tissue; host or cells: human dried blood spots (CDC control DBS: pooled cord blood, leukocyte-reduced adult blood)
T4 sequence (P35475 28-653): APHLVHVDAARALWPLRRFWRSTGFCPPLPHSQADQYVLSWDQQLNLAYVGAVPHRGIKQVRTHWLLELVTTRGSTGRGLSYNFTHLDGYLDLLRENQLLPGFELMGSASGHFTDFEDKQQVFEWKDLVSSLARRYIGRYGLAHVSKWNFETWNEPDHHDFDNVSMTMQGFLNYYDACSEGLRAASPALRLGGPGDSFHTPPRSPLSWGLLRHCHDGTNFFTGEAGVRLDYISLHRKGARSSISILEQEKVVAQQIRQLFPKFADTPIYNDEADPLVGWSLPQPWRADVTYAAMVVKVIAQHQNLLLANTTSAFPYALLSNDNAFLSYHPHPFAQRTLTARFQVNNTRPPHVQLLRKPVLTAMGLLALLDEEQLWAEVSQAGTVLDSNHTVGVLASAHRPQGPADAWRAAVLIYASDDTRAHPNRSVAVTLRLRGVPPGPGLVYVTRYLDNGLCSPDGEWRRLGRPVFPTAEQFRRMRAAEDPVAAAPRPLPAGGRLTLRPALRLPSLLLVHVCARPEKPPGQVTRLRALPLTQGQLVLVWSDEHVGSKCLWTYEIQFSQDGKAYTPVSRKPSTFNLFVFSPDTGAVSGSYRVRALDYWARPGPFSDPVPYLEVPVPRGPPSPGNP

acid α-glucosidase (GAA) = biological target: T5, acid α-glucosidase (GAA) (Homo sapiens, UniProt P10253); assay: 6-plex DBS enzyme activity assay (FIA-MS/MS) with and without sodium oleate: GAA; type: biochemical
T5 construct: from tissue; host or cells: human dried blood spots (CDC control DBS: pooled cord blood, leukocyte-reduced adult blood)

[6] = biological target: T6, acid α-galactosidase A (GLA) (Homo sapiens, UniProt P06280); assay: 6-plex DBS enzyme activity assay (FIA-MS/MS) with and without sodium oleate: GLA; type: biochemical
T6 construct: from tissue; host or cells: human dried blood spots (CDC control DBS: pooled cord blood, leukocyte-reduced adult blood)
T6 sequence (P06280 32-429): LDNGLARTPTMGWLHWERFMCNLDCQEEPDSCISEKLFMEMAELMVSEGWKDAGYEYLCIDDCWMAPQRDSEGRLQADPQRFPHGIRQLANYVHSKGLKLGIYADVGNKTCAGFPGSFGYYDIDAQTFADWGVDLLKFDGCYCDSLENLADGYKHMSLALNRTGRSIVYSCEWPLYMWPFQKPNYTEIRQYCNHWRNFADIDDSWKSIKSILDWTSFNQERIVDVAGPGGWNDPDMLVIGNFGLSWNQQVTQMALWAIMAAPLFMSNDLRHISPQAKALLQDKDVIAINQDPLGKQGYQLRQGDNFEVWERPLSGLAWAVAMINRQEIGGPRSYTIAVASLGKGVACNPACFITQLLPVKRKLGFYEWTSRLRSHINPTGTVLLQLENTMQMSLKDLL

[7] = CDC High Control DBS, with sodium oleate
[8] = CDC High Control DBS, with vs without sodium oleate
[9] = CDC Low Control DBS, with sodium oleate
[10] = CDC Low Control DBS, with vs without sodium oleate
[11] = CDC Medium Control DBS, with sodium oleate
[12] = CDC Medium Control DBS, with vs without sodium oleate
[13] = Med/Low Control DBS ratio, with vs without sodium oleate
[14] = addition of sodium oleate, stated for the ceramides
[15] = two assays differing only by addition or lack of sodium oleate

CCCCCCCC/C=C\CCCCCCCC(=O)O [oleic acid]
solubility in aqueous buffers [1]: very difficult to dissolve
effect on GALC enzyme [2]: enhancer

CCCCCCCC/C=C\CCCCCCCC(=O)[O-].[Na+] [sodium oleate]
Enzyme Activity GALC [3, 7]: 6.72 µmol/L/h
Sodium oleate gain GALC [3, 8]: 126%
Enzyme Activity GALC [3, 9]: 0.45 µmol/L/h
Sodium oleate gain GALC [3, 10]: 118%
Enzyme Activity GALC [3, 11]: 3.22 µmol/L/h
Sodium oleate gain GALC [3, 12]: 133%
Sodium oleate gain of Med/Low ratio GALC [3, 13]: 117%
widening of the gap between Low Control DBS and Medium Control DBS, GALC [3, 14]: approximately 25%
enzyme activity GALC when sodium oleate was present [3, 15]: improved
CDC Med/Low Control DBS activity ratio GALC ([3]; with sodium oleate): 7.1
Enzyme Activity ASM [4, 7]: 2.54 µmol/L/h
Sodium oleate gain ASM [4, 8]: 117%
Enzyme Activity ASM [4, 9]: 0.16 µmol/L/h
Sodium oleate gain ASM [4, 10]: 95%
Enzyme Activity ASM [4, 11]: 1.29 µmol/L/h
Sodium oleate gain ASM [4, 12]: 122%
Sodium oleate gain of Med/Low ratio ASM [4, 13]: 136%
widening of the gap between Low Control DBS and Medium Control DBS, ASM [4, 14]: approximately 25%
enzyme activity ASM when sodium oleate was present [4, 15]: improved
CDC Med/Low Control DBS activity ratio ASM ([4]; with sodium oleate): 8.0
Enzyme Activity ABG [5, 7]: 11.46 µmol/L/h
Sodium oleate gain ABG [5, 8]: 162%
Enzyme Activity ABG [5, 9]: 0.95 µmol/L/h
Sodium oleate gain ABG [5, 10]: 159%
Enzyme Activity ABG [5, 11]: 5.44 µmol/L/h
Sodium oleate gain ABG [5, 12]: 175%
Sodium oleate gain of Med/Low ratio ABG [5, 13]: 120%
widening of the gap between Low Control DBS and Medium Control DBS, ABG [5, 14]: approximately 25%
enzyme activity ABG when sodium oleate was present [5, 15]: improved
CDC Med/Low Control DBS activity ratio ABG ([5]; with sodium oleate): 5.8
Enzyme Activity IDUA (α-L-iduronidase (IDUA); [7]): 11.95 µmol/L/h
Sodium oleate gain IDUA (α-L-iduronidase (IDUA); [8]): 111%
Enzyme Activity IDUA (α-L-iduronidase (IDUA); [9]): 0.72 µmol/L/h
Sodium oleate gain IDUA (α-L-iduronidase (IDUA); [10]): 107%
Enzyme Activity IDUA (α-L-iduronidase (IDUA); [11]): 5.86 µmol/L/h
Sodium oleate gain IDUA (α-L-iduronidase (IDUA); [12]): 116%
Sodium oleate gain of Med/Low ratio IDUA (α-L-iduronidase (IDUA); [13]): 114%
CDC Med/Low Control DBS activity ratio IDUA (α-L-iduronidase (IDUA); with sodium oleate): 8.1
Enzyme Activity GAA (acid α-glucosidase (GAA); [7]): 13.48 µmol/L/h
Sodium oleate gain GAA (acid α-glucosidase (GAA); [8]): 110%
Enzyme Activity GAA (acid α-glucosidase (GAA); [9]): 0.99 µmol/L/h
Sodium oleate gain GAA (acid α-glucosidase (GAA); [10]): 105%
Enzyme Activity GAA (acid α-glucosidase (GAA); [11]): 7.08 µmol/L/h
Sodium oleate gain GAA (acid α-glucosidase (GAA); [12]): 115%
Sodium oleate gain of Med/Low ratio GAA (acid α-glucosidase (GAA); [13]): 115%
CDC Med/Low Control DBS activity ratio GAA (acid α-glucosidase (GAA); with sodium oleate): 7.2
Enzyme Activity GLA [6, 7]: 13.15 µmol/L/h
Sodium oleate gain GLA [6, 8]: 104%
Enzyme Activity GLA [6, 9]: 1.00 µmol/L/h
Sodium oleate gain GLA [6, 10]: 95%
Enzyme Activity GLA [6, 11]: 6.57 µmol/L/h
Sodium oleate gain GLA [6, 12]: 106%
Sodium oleate gain of Med/Low ratio GLA [6, 13]: 114%
CDC Med/Low Control DBS activity ratio GLA ([6]; with sodium oleate): 6.5
